Common to all, as to experiment: ERK1/2 phosphorylation
What all share (assay type): cell-based

One assay has as its target T1, hCTR L291A (Homo sapiens, UniProt P30988, L291A).
T1 construct: expressed in transfected cells
T1 sequence (P30988 25-474 L291A): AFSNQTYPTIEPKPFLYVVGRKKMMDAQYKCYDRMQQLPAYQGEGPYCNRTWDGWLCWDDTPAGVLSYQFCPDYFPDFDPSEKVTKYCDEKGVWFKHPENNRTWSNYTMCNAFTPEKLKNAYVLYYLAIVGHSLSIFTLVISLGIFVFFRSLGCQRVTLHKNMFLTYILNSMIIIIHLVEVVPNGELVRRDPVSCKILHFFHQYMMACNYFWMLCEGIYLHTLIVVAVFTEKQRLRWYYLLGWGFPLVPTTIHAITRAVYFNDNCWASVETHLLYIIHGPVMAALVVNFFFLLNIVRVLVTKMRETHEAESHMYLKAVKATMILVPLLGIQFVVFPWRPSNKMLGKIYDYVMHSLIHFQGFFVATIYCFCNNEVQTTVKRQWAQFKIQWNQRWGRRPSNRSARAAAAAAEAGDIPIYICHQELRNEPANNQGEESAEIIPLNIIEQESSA
As to conditions: CV1-FlpIn cells, mean ± S.E.M.; for Emax: pERK maximal response. The method, boiled down:
(§1)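 Cells were seeded at 2.5 × 10^4 cells/well and cultured overnight before stimulation. ERK1/2 phosphorylation was normalized to the maximal response to 10% FBS measured at 6 min. EC50 and Emax came from a 3-parameter logistic fit of concentration-response curves.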

A further assay addresses T2, hCTR M376A (Homo sapiens, UniProt P30988, M376A).
T2 construct: c-Myc (N); expressed in transfected cells
T2 sequence (P30988 25-474 M376A): T1 sequence (P30988 25-474 L291A) with A267L, M352A
The following applies: CV1-FlpIn cells, mean ± S.E.M.; for Emax: pERK maximal response; for EC50: pERK, three-parameter logistic fit. The method, boiled down:
as §1

A further assay has as its target T3, hCTR S292A (Homo sapiens, UniProt P30988, S292A).
T3 construct: expressed in transfected cells
T3 sequence (P30988 25-474 S292A): T1 sequence (P30988 25-474 L291A) with A267L, S268A
As to conditions: CV1-FlpIn cells, mean ± S.E.M.; for Emax: pERK maximal response; for EC50: pERK, three-parameter logistic fit. The method, boiled down: as §1

Another assay has as its target T4, hCTR S364A (Homo sapiens, UniProt P30988, S364A).
T4 construct: c-Myc (N); expressed in transfected cells
T4 sequence (P30988 25-474 S364A): T1 sequence (P30988 25-474 L291A) with A267L, S340A
As to conditions: CV1-FlpIn cells, mean ± S.E.M.; for Emax: pERK maximal response; for EC50: pERK, three-parameter logistic fit. The procedure, abridged: as §1

The next assay has as its target T5, hCTR WT (Homo sapiens, UniProt P30988).
T5 construct: expressed in transfected cells
T5 sequence (P30988 25-474): T1 sequence (P30988 25-474 L291A) with A267L
The following applies: CV1-FlpIn cells, mean ± S.E.M.; for Emax: pERK maximal response; for EC50: pERK, three-parameter logistic fit. The procedure, abridged:
as §1

As usually defined, the Emax is the size of the effect at its maximum, as opposed to the concentration needed. By EC50 is commonly meant the concentration needed to bring the measured effect to its halfway point. A high value points to weaker potency.

Substitutions are numbered along the chain they refer to. Where a SMILES comes first, the peptide text is derived from it. Bridges are numbered along the chain shown (N, C = ends).

For `CC[C@H](C)[C@H](NC(=O)[C@H](C)NC(=O)[C@@H](NC(=O)[C@H](CCC(N)=O)NC(=O)[C@@H]1CCCN1C(=O)[C@H](Cc1ccccc1)NC(=O)[C@@H](NC(=O)[C@H](Cc1c[nH]cn1)NC(=O)[C@H](Cc1ccccc1)NC(=O)[C@H](CCCCN)NC(=O)[C@H](CC(N)=O)NC(=O)[C@H](Cc1ccccc1)NC(=O)[C@H](CC(=O)O)NC(=O)[C@H](CCC(N)=O)NC(=O)[C@@H](NC(=O)[C@H](Cc1ccc(O)cc1)NC(=O)[C@@H](NC(=O)CNC(=O)[C@H](CC(C)C)NC(=O)[C@H](CCSC)NC(=O)[C@@H]1CSSC[C@H](N)C(=O)NCC(=O)N[C@@H](CC(N)=O)C(=O)N[C@@H](CC(C)C)C(=O)N[C@@H](CO)C(=O)N[C@@H]([C@@H](C)O)C(=O)N1)[C@@H](C)O)[C@@H](C)O)[C@@H](C)O)[C@@H](C)O)C(=O)NCC(=O)N[C@H](C(=O)NCC(=O)N[C@@H](C)C(=O)N1CCC[C@H]1C(N)=O)C(C)C` [hCT], the Emax at hCTR L291A came to 72 ± 9%; at hCTR M376A, 52 ± 4%; on hCTR S292A it was 116 ± 11%; on hCTR S364A, 135 ± 10%; on hCTR WT, 100 ± 3%.
`CC(C)C[C@H](NC(=O)CNC(=O)[C@H](C)NC(=O)[C@H](CC(C)C)NC(=O)[C@H](CCCNC(=N)N)NC(=O)[C@H](Cc1cnc[nH]1)NC(=O)[C@@H](NC(=O)[C@@H](NC(=O)[C@@H]1CSSC[C@H](NC(=O)[C@H](C)N)C(=O)N[C@@H](CC(=O)O)C(=O)N[C@@H]([C@@H](C)O)C(=O)N[C@@H](C)C(=O)N[C@@H]([C@@H](C)O)C(=O)N1)C(C)C)[C@@H](C)O)C(=O)N[C@@H](CC(C)C)C(=O)N[C@@H](CO)C(=O)N[C@@H](CCCNC(=N)N)C(=O)N[C@@H](CO)C(=O)NCC(=O)NCC(=O)N[C@H](C(=O)N[C@H](C(=O)N[C@@H](CCCCN)C(=O)N[C@@H](CC(N)=O)C(=O)N[C@@H](CC(N)=O)C(=O)N[C@@H](Cc1ccccc1)C(=O)N[C@H](C(=O)N1CCC[C@H]1C(=O)N[C@H](C(=O)N[C@@H](CC(N)=O)C(=O)N[C@H](C(=O)NCC(=O)N[C@@H](CO)C(=O)N[C@@H](CCCCN)C(=O)N[C@@H](C)C(=O)N[C@@H](Cc1ccccc1)C(N)=O)C(C)C)[C@@H](C)O)C(C)C)C(C)C)C(C)C` [hαCGRP]: the Emax on hCTR M376A is 36 ± 8%; at hCTR S292A, 80 ± 12%; on hCTR S364A, 54 ± 6%; at hCTR WT, 100 ± 6%. Also, the EC50 is 18.2 nM on hCTR M376A, 20.9 nM on hCTR S292A, 10.7 nM on hCTR S364A and 77.6 nM on hCTR WT.
In the case of `CSCC[C@H](NC(=O)CNC(=O)[C@H](CO)NC(=O)[C@H](Cc1ccccc1)NC(=O)[C@H](CCCNC(=N)N)NC(=O)[C@H](Cc1c[nH]cn1)NC(=O)[C@H](Cc1ccccc1)NC(=O)[C@H](CC(N)=O)NC(=O)[C@H](CC(N)=O)NC(=O)[C@H](CC(C)C)NC(=O)[C@H](CC(N)=O)NC(=O)[C@H](CCCNC(=N)N)NC(=O)[C@H](Cc1c[nH]c2ccccc12)NC(=O)[C@H](Cc1ccc(O)cc1)NC(=O)[C@H](C)NC(=O)[C@H](CO)NC(=O)[C@H](CC(C)C)NC(=O)[C@@H](NC(=O)[C@@H]1CSSC[C@H](N)C(=O)N[C@@H](CO)C(=O)N[C@@H](CC(N)=O)C(=O)N[C@@H](CC(C)C)C(=O)N[C@@H](CO)C(=O)N[C@@H]([C@@H](C)O)C(=O)N1)C(C)C)C(=O)NCC(=O)N[C@@H](Cc1ccccc1)C(=O)NCC(=O)N1CCC[C@H]1C(=O)N[C@@H](CCC(=O)O)C(=O)N[C@H](C(=O)N1CCC[C@H]1C(N)=O)[C@@H](C)O` [pCT] (H-CSNLSTCVLSAYWRNLNNFHRFSGMGFGPETP-NH2; disulfide 1-7), the Emax on hCTR L291A came to 77 ± 5%; on hCTR M376A it was 47 ± 4%; on hCTR S292A it was 104 ± 7%; on hCTR S364A, 127 ± 12%; on hCTR WT it was 100 ± 3%. In addition, the EC50 at hCTR L291A (pERK, three-parameter logistic fit) was 9.55 nM; at hCTR M376A it was 1.95 nM; at hCTR S292A it was 0.55 nM; at hCTR S364A, 3.63 nM; at hCTR WT it was 1.12 nM.
Turning to `CC(C)C[C@H](NC(=O)[C@H](CC(N)=O)NC(=O)[C@H](CC(N)=O)NC(=O)[C@H](CO)NC(=O)[C@H](CO)NC(=O)[C@H](CCCNC(=N)N)NC(=O)[C@@H](NC(=O)[C@H](CC(C)C)NC(=O)[C@H](Cc1ccccc1)NC(=O)[C@H](CC(N)=O)NC(=O)[C@H](C)NC(=O)[C@H](CC(C)C)NC(=O)[C@H](CCCNC(=N)N)NC(=O)[C@H](CCC(N)=O)NC(=O)[C@@H](NC(=O)[C@H](C)NC(=O)[C@@H]1CSSC[C@H](NC(=O)[C@@H](N)CCCCN)C(=O)N[C@@H](CC(N)=O)C(=O)N[C@@H]([C@@H](C)O)C(=O)N[C@@H](C)C(=O)N[C@@H]([C@@H](C)O)C(=O)N1)[C@@H](C)O)C(C)C)C(=O)NCC(=O)N1CCC[C@H]1C(=O)N[C@H](C(=O)N[C@@H](CC(C)C)C(=O)N1CCC[C@H]1C(=O)N1CCC[C@H]1C(=O)N[C@H](C(=O)N[C@@H](CC(N)=O)C(=O)N[C@H](C(=O)NCC(=O)N[C@@H](CO)C(=O)N[C@@H](CC(N)=O)C(=O)N[C@H](C(=O)N[C@@H](Cc1ccc(O)cc1)C(N)=O)[C@@H](C)O)C(C)C)[C@@H](C)O)C(C)C` [rAmy], the Emax at hCTR L291A was 41 ± 4%; at hCTR M376A, 43 ± 7%; on hCTR S292A it was 96 ± 12%; on hCTR S364A, 66 ± 9%; on hCTR WT, 100 ± 5%.
Regarding `CC(C)C[C@H](NC(=O)[C@H](CCCCN)NC(=O)CNC(=O)[C@H](CC(C)C)NC(=O)[C@@H](NC(=O)[C@@H]1CSSC[C@H](N)C(=O)N[C@@H](CO)C(=O)N[C@@H](CC(N)=O)C(=O)N[C@@H](CC(C)C)C(=O)N[C@@H](CO)C(=O)N[C@@H]([C@@H](C)O)C(=O)N1)C(C)C)C(=O)N[C@@H](CO)C(=O)N[C@@H](CCC(N)=O)C(=O)N[C@@H](CCC(=O)O)C(=O)N[C@@H](CC(C)C)C(=O)N[C@@H](Cc1c[nH]cn1)C(=O)N[C@@H](CCCCN)C(=O)N[C@@H](CC(C)C)C(=O)N[C@@H](CCC(N)=O)C(=O)N[C@H](C(=O)N[C@@H](Cc1ccc(O)cc1)C(=O)N1CCC[C@H]1C(=O)N[C@@H](CCCNC(=N)N)C(=O)N[C@H](C(=O)N[C@@H](CC(N)=O)C(=O)N[C@H](C(=O)NCC(=O)N[C@@H](CO)C(=O)NCC(=O)N[C@H](C(=O)N1CCC[C@H]1C(N)=O)[C@@H](C)O)[C@@H](C)O)[C@@H](C)O)[C@@H](C)O` [sCT], the Emax on hCTR L291A was found to be 107 ± 5%; on hCTR M376A it was 72 ± 5%; on hCTR S292A, 121 ± 7%; at hCTR S364A, 106 ± 4%; on hCTR WT, 100 ± 3%.

For the origin of these results see article PMC5908784, “Extracellular loops 2 and 3 of the calcitonin receptor selectively modify agonist binding and efficacy” (Biochemical Pharmacology, 2018).
